Reference: patent US10774084B2, “Adenine derivatives and their use as UV-photoprotective agents” (UNIVERZITA PALACKEHO V OLOMOUCI, priority 2015, dated 2020)

Tests used:
[1] = system: skin fibroblasts BJ and keratinocytes HaCaT; assay: MTT in vitro cytotoxicity test for skin cells; type: cell-based; details: Homo sapiens; 72 hour treatment; table does not say which cell line (BJ, HaCaT)
Procedure: MTT assay is a standard test of toxicity based on photometric measurement of the ability of metabolically active cells to reduce MTT (3-(4,5-dimethylthiazol-2-yl)-2,5-diphenyltetrazolium bromide). Using the assay, the effects of 72 hour treatments with several concentrations of the compounds (sixfold dilution, maximal concentration=50 microM) on viability of skin fibroblasts BJ and keratinocytes HaCaT were evaluated. About 5,000 cells were seeded per well of a 96-well plate 24 hours before the treatment. DMSO vehiculum was used as a negative control. After 72 hour treatment, new medium with MTT (Sigma, M2128) was added to a final concentration of 0.5 mg/ml. After 3 hours, medium was removed and resulting formazan in the cells was dissolved in DMSO. The absorbance was measured at 570 nm (640 nm reference wavelength). The IC50 values were calculated from the dose-response curves. 6-furfurylaminopurine riboside was used as positive controls.

HaCaT [2] = assay: In vitro phototoxicity test (neutral red) on HaCaT; type: cell-based, human
Procedure: (§1) Spontaneously Immortalized Aneuploid Human Keratinocyte Cell Line (HaCaT) was bought from CLS (Eppeheim, Germany) and used as an in vitro model. For all experiments the keratinocytes were seeded onto 96-well plates at a density of 1.6×10^5 cells/ml (0.2 ml per well) of growth medium (DMEM supplemented with fetal bovine serum (10%), penicillin ([…]) and streptomycin (100 U/ml)).
Test substances included compounds number 3, 9, 15 and 20. Compounds were dissolved in DMSO and then diluted in serum free medium (DMEM supplemented penicillin (100 mg/ml) and streptomycin (100 U/ml)). After 24 h incubation was growth medium changed to serum free medium containing test compound or DMSO (negative control). The final applied concentrations range was 3.9-125 μmol/l. As a control, serum free medium supplemented with appropriate concentration of DMSO (0.5%, v/v) was used. In parallel with test compound, chlorpromazine (CPZ; 0.8-50 μmol/l) was used as a known phototoxic compound. The test compound was in parallel applied on two 96-well plates with HaCaT. After 60 minutes incubation with test compound medium was discarded, cells were washed two-times with PBS and PBS supplemented with glucose (1 mg/ml) was applied. A plate was then exposed to a non-cytotoxic dose of UVA radiation (5.0 J/cm2) using a solar simulator SOL 500 (Dr. Hoenle Technology, Germany) equipped with a H1 filter transmitting wavelengths of 320-400 nm. Intensity of UVA radiation was evaluated before each irradiation by UVA-meter. A control (non-irradiated) plate was for the period of irradiation incubated in dark. After UVA exposure PBS with glucose was discarded and serum free medium was applied. After 24 hours (37° C., 5% CO2) cell damage was evaluated by neutral red (NR) incorporation into viable cells. Medium was discarded and NR solution (0.03% w/v, PBS) was applied. After 60 minutes NR solution was discarded, cells were fixed with a mixture of formaldehyde (0.5%, v/v) and CaCl2 (1%, m/v) in ratio 1:1 and then NR was dissolved in methanol (50%, v/v) with acetic acid (1%, v/v). After 5 minutes of intensive shaking absorbance was measured at 540 nm. Experiments were performed in four independent repetition with use of cells from four donors to minimize individual sensitivity of donor cells. Phototoxic effect was evaluated as % of viability of control cells that was calculated from experimental data (absorbance) according to the following equation: […]
AS . . . absorbance of sample (cells pre-incubated with test compound in serum free medium and irradiated)
AC . . . absorbance of control (cells pre-incubated with DMSO in serum free medium and irradiated)
AB . . . absorbance of background (extraction solution)

HaCaT [3] = assay: In vitro UVA/UVB photoprotection test on HaCaT; type: cell-based, human
Procedure: as §1
Test substances included compounds number 3, 9, 15 and 20. Compounds were dissolved in DMSO and then diluted in serum free medium (DMEM supplemented penicillin ([…]) and streptomycin (100 U/ml)). After 24 h incubation was growth medium changed to serum free medium containing test compounds. The final applied concentration range was 3.9-31.25 μmol/l. As a control, serum free medium supplemented with appropriate concentration of DMSO (0.5%, v/v) was used. Rosmarinic acid was used as positive control. After 60 minutes incubation with test compounds medium was discarded, cells were washed two-times with PBS and PBS supplemented with glucose (1 mg/ml) was applied. To study UVA photoprotection, a plate was exposed to a cytotoxic dose of UVA radiation (10 J/cm2) using a solar simulator SOL 500 (Dr. Hoenle Technology, Germany) equipped with a H1 filter transmitting wavelengths of 320-400 nm. To study UVB photoprotection, a plate was exposed to a cytotoxic dose of UVB radiation (150 mJ/cm2) using the solar simulator equipped with a H2 filter transmitting wavelengths of 295-320 nm. Intensity of UVA or UVB radiation was evaluated before each irradiation by UVA- or UVB-meter. Control (non-irradiated) plates were for the period of irradiation incubated in dark. After UVA or UVB exposure PBS with glucose was discarded and serum free medium was applied. After 24 hours (37° C., 5% CO2) cell damage was evaluated by neutral red (NR) incorporation into viable cells. Medium was discarded and NR solution (0.03% w/v, PBS) was applied. After 60 minutes NR solution was discarded, cells were fixed with a mixture of formaldehyde (0.5%, v/v) and CaCl2 (1%, m/v) in ratio 1:1 and then NR was dissolved in methanol (50%, v/v) with acetic acid (1%, v/v).
After 5 minutes of intensive shaking absorbance was measured at 540 nm. Experiments were performed in four independent repetitions with use of […] to minimize individual sensitivity of donor cells. Photoprotective effect was evaluated by comparison of experimental data (absorbance) of test compounds with a positive control and a negative control (according to the following equation: […]
As . . . absorbance of sample (cells pre-incubated with test compounds in serum free medium and irradiated)
Anc . . . absorbance of negative control (cells pre-incubated with s DMSO in serum free medium and non-irradiated=incubated in dark)
Apc . . . absorbance of positive control (cells pre-incubated with s DMSO in serum free medium and irradiated)

[4] = Table 17: UVA-induced damage (10 J/cm2), 3.9 μmol/l
[5] = Table 17: UVA-induced damage (10 J/cm2), 7.8 μmol/l
[6] = Table 17: UVA-induced damage (10 J/cm2), 15.6 μmol/l
[7] = Table 17: UVA-induced damage (10 J/cm2), 31.3 μmol/l
[8] = Table 18: titled UVA-induced damage, 3.9 μmol/l
[9] = Table 18: titled UVA-induced damage, 7.8 μmol/l
[10] = Table 18: titled UVA-induced damage, 15.6 μmol/l
[11] = Table 18: titled UVA-induced damage, 31.3 μmol/l

## c1nc(NCC2CCCO2)c2ncn(C3CCCO3)c2n1 (stereo not shown) [Compound 1, 6-(tetrahydrofuran-2-ylmethylamino)-9-(tetrahydrofuran-2-yl)purine]
[1]
  IC50: > 100 µM

## OCc1ccc(CNc2ncnc3c2ncn3C2CCCO2)o1 (stereo not shown) [Compound 3, 6-(5-hydroxymethylfuran-2-ylmethylamino)-9-(tetrahydrofuran-2-yl)purine]
HaCaT [2]; +UVA 5.0 J/cm2, 3.9 μmol/l
  HaCaT viability: 103.88 % control
HaCaT [2]; +UVA 5.0 J/cm2, 7.8 μmol/l
  HaCaT viability: 111.08 % control
HaCaT [2]; +UVA 5.0 J/cm2, 15.6 μmol/l
  HaCaT viability: 107.93 % control
HaCaT [2]; +UVA 5.0 J/cm2, 31.3 μmol/l
  HaCaT viability: 118.43 % control
HaCaT [2]; +UVA 5.0 J/cm2, 62.5 μmol/l
  HaCaT viability: 120.78 % control
HaCaT [2]; +UVA 5.0 J/cm2, 125 μmol/l
  HaCaT viability: 124.66 % control
HaCaT [2]; −UVA, 3.9 μmol/l
  HaCaT viability: 100.1 % control
HaCaT [2]; −UVA, 7.8 μmol/l
  HaCaT viability: 100.4 % control
HaCaT [2]; −UVA, 15.6 μmol/l
  HaCaT viability: 102.1 % control
HaCaT [2]; −UVA, 31.3 μmol/l
  HaCaT viability: 107.8 % control
HaCaT [2]; −UVA, 62.5 μmol/l
  HaCaT viability: 106.4 % control
HaCaT [2]; −UVA, 125 μmol/l
  HaCaT viability: 109.5 % control
HaCaT [3]; [4]
  Protection (%): 26.8%
HaCaT [3]; [5]
  Protection (%): 34.3%
HaCaT [3]; [6]
  Protection (%): 46.0%
HaCaT [3]; [7]
  Protection (%): 50.7%
HaCaT [3]; [8]
  Protection (%): 27.3%
HaCaT [3]; [9]
  Protection (%): 46.5%
HaCaT [3]; [10]
  Protection (%): 47.8%
HaCaT [3]; [11]
  Protection (%): 53.8%

## c1csc(CNc2ncnc3c2ncn3C2CCCO2)c1 (stereo not shown) [Compound 9, 6-(thiophen-2-ylmethylamino)-9-(tetrahydrofuran-2-yl)purine]
[1]
  IC50: > 100 µM
HaCaT [2]; +UVA 5.0 J/cm2, 3.9 μmol/l
  HaCaT viability: 122.7 % control
HaCaT [2]; +UVA 5.0 J/cm2, 7.8 μmol/l
  HaCaT viability: 124.2 % control
HaCaT [2]; +UVA 5.0 J/cm2, 15.6 μmol/l
  HaCaT viability: 120.5 % control
HaCaT [2]; +UVA 5.0 J/cm2, 31.3 μmol/l
  HaCaT viability: 128.1 % control
HaCaT [2]; +UVA 5.0 J/cm2, 62.5 μmol/l
  HaCaT viability: 129.9 % control
HaCaT [2]; +UVA 5.0 J/cm2, 125 μmol/l
  HaCaT viability: 126.6 % control
HaCaT [2]; −UVA, 3.9 μmol/l
  HaCaT viability: 101 % control
HaCaT [2]; −UVA, 7.8 μmol/l
  HaCaT viability: 101.1 % control
HaCaT [2]; −UVA, 15.6 μmol/l
  HaCaT viability: 100.4 % control
HaCaT [2]; −UVA, 31.3 μmol/l
  HaCaT viability: 101.8 % control
HaCaT [2]; −UVA, 62.5 μmol/l
  HaCaT viability: 103.9 % control
HaCaT [2]; −UVA, 125 μmol/l
  HaCaT viability: 103.4 % control
HaCaT [3]; [4]
  Protection (%): 72.1%
HaCaT [3]; [5]
  Protection (%): 70.3%
HaCaT [3]; [6]
  Protection (%): 66.8%
HaCaT [3]; [7]
  Protection (%): 61.4%
HaCaT [3]; [8]
  Protection (%): 48.8%
HaCaT [3]; [9]
  Protection (%): 56%
HaCaT [3]; [10]
  Protection (%): 55.7%
HaCaT [3]; [11]
  Protection (%): 56.5%

## Clc1nc(NCc2ccco2)c2ncn(C3CCCO3)c2n1 (stereo not shown) [Compound 15, 2-chloro-6-furfurylamino-9-(tetrahydrofuran-2-yl)purine]
[1]
  IC50: > 100 µM
HaCaT [2]; +UVA 5.0 J/cm2, 3.9 μmol/l
  HaCaT viability: 116.4 % control
HaCaT [2]; +UVA 5.0 J/cm2, 7.8 μmol/l
  HaCaT viability: 119.9 % control
HaCaT [2]; +UVA 5.0 J/cm2, 15.6 μmol/l
  HaCaT viability: 119.9 % control
HaCaT [2]; +UVA 5.0 J/cm2, 31.3 μmol/l
  HaCaT viability: 118.8 % control
HaCaT [2]; +UVA 5.0 J/cm2, 62.5 μmol/l
  HaCaT viability: 115.7 % control
HaCaT [2]; +UVA 5.0 J/cm2, 125 μmol/l
  HaCaT viability: 104 % control
HaCaT [2]; −UVA, 3.9 μmol/l
  HaCaT viability: 106.5 % control
HaCaT [2]; −UVA, 7.8 μmol/l
  HaCaT viability: 107.4 % control
HaCaT [2]; −UVA, 15.6 μmol/l
  HaCaT viability: 108.6 % control
HaCaT [2]; −UVA, 31.3 μmol/l
  HaCaT viability: 108.6 % control
HaCaT [2]; −UVA, 62.5 μmol/l
  HaCaT viability: 109.2 % control
HaCaT [2]; −UVA, 125 μmol/l
  HaCaT viability: 105 % control
HaCaT [3]; [4]
  Protection (%): 41.2%
HaCaT [3]; [5]
  Protection (%): 56.9%
HaCaT [3]; [6]
  Protection (%): 55.3%
HaCaT [3]; [7]
  Protection (%): 76.7%
HaCaT [3]; [8]
  Protection (%): 12.3%
HaCaT [3]; [9]
  Protection (%): 35.3%
HaCaT [3]; [10]
  Protection (%): 37.8%
HaCaT [3]; [11]
  Protection (%): 51.3%

## Clc1nc(NCC2CCCO2)c2ncn(C3CCCO3)c2n1 (stereo not shown) [Compound 20, 2-chloro-6-(tetrahydrofuran-2-ylmethylamino)-9-(tetrahydrofuran-2-yl)purine]
HaCaT [2]; +UVA 5.0 J/cm2, 3.9 μmol/l
  HaCaT viability: 104.6 % control
HaCaT [2]; +UVA 5.0 J/cm2, 7.8 μmol/l
  HaCaT viability: 112.1 % control
HaCaT [2]; +UVA 5.0 J/cm2, 15.6 μmol/l
  HaCaT viability: 110.1 % control
HaCaT [2]; +UVA 5.0 J/cm2, 31.3 μmol/l
  HaCaT viability: 121.4 % control
HaCaT [2]; +UVA 5.0 J/cm2, 62.5 μmol/l
  HaCaT viability: 125.8 % control
HaCaT [2]; +UVA 5.0 J/cm2, 125 μmol/l
  HaCaT viability: 125.9 % control
HaCaT [2]; −UVA, 3.9 μmol/l
  HaCaT viability: 103.5 % control
HaCaT [2]; −UVA, 7.8 μmol/l
  HaCaT viability: 102.9 % control
HaCaT [2]; −UVA, 15.6 μmol/l
  HaCaT viability: 104.1 % control
HaCaT [2]; −UVA, 31.3 μmol/l
  HaCaT viability: 108.6 % control
HaCaT [2]; −UVA, 62.5 μmol/l
  HaCaT viability: 110.7 % control
HaCaT [2]; −UVA, 125 μmol/l
  HaCaT viability: 110.5 % control
HaCaT [3]; [4]
  Protection (%): 12.3%
HaCaT [3]; [5]
  Protection (%): 25.0%
HaCaT [3]; [6]
  Protection (%): 28.9%
HaCaT [3]; [7]
  Protection (%): 31.6%
HaCaT [3]; [8]
  Protection (%): 45.7%
HaCaT [3]; [9]
  Protection (%): 66.2%
HaCaT [3]; [10]
  Protection (%): 64%
HaCaT [3]; [11]
  Protection (%): 75.2%

## CN(C)CCCN1c2ccccc2Sc2ccc(Cl)cc21 [chlorpromazine, reference compound]
HaCaT [2]; UVA+, 3.1 μmol/l
  viability of HaCaT cells: below 80 % of control
HaCaT [2]; UVA−, 25 μmol/l
  viability of HaCaT cells: below 70%
